Data: the CheMixHub viscosity set

Test: xn = mol fraction of the nth substance listed

O=S1(=O)CCCC1 + OCCO
303.15 K, 101 kPa
Conditions | viscosity [mPa·s]
x1 = 0.0503 | 11.92
x1 = 0.0993 | 10.75
x1 = 0.2006 | 8.926
x1 = 0.2984 | 7.669
x1 = 0.393 | 6.857
x1 = 0.4553 | 6.555
x1 = 0.5015 | 6.443
x1 = 0.5484 | 6.443
x1 = 0.6038 | 6.548
x1 = 0.7048 | 7.013
x1 = 0.8065 | 7.683
x1 = 0.9034 | 8.532
x1 = 0.9426 | 9.018

Cc1ccc(O)cc1 + Nc1ccccc1
viscosity [mPa·s], 101.33 kPa
Conditions | x1 = 0.2696 | x1 = 0.4987 | x1 = 0.5914 | x1 = 0.7696 | x1 = 0.8857
298.15 K | 6.95 | 10.7 | 12.4 | 14.4 | 14.5
323.15 K | 2.93 | 3.97 | 4.26 | 4.62 | 4.71

O=S1(=O)CCCC1 + CCO
viscosity [mPa·s], 101 kPa
Conditions | 293.15 K | 298.15 K | 303.15 K | 308.15 K | 313.15 K | 323.15 K
x1 = 0.06211 | 1.21 | 1.103 | 1.006 | – | 0.845 | 0.714
x1 = 0.068 | – | – | 1.008 | 0.9247 | 0.8482 | –
x1 = 0.1147 | – | – | 1.063 | 0.976 | 0.8945 | –
x1 = 0.131 | 1.316 | 1.197 | 1.094 | – | 0.919 | 0.778
x1 = 0.2039 | 1.49 | 1.35 | 1.228 | – | 1.031 | 0.875
x1 = 0.2119 | – | – | 1.241 | 1.135 | 1.039 | –
x1 = 0.271 | – | – | 1.38 | 1.264 | 1.155 | –
x1 = 0.283 | 1.734 | 1.57 | 1.421 | – | 1.192 | 1.009
x1 = 0.3691 | 2.087 | 1.883 | 1.699 | – | 1.421 | 1.202
x1 = 0.374 | – | – | 1.696 | 1.546 | 1.417 | –
x1 = 0.4622 | 2.558 | 2.292 | 2.09 | – | 1.734 | 1.467
x1 = 0.4742 | – | – | 2.116 | 1.922 | 1.755 | –
x1 = 0.5688 | 3.306 | 2.96 | 2.668 | – | 2.207 | 1.857
x1 = 0.5738 | – | – | 2.691 | 2.436 | 2.216 | –
x1 = 0.6865 | 4.608 | 4.075 | 3.682 | – | 3.001 | 2.511
x1 = 0.7403 | – | – | 4.239 | 3.82 | 3.446 | –
x1 = 0.8141 | 6.959 | 6.153 | 5.503 | – | 4.423 | 3.632
x1 = 0.8574 | – | – | 6.141 | 5.47 | 4.899 | –

O=S1(=O)CCCC1 + Cc1ccccc1C
viscosity [mPa·s], 101.3 kPa
Conditions | x2 = 0.1118 | x2 = 0.2206 | x2 = 0.3267 | x2 = 0.4301 | x2 = 0.5311 | x2 = 0.6293 | x2 = 0.7254 | x2 = 0.8191 | x2 = 0.9105
303.15 K | 6.89 | 4.875 | 3.582 | 2.692 | 2.066 | 1.618 | 1.243 | 1.04 | 0.8453
323.15 K | 4.358 | 3.169 | 2.397 | 1.854 | 1.456 | 1.173 | 0.9211 | 0.8044 | 0.6503

CCCCOCCOCCO + ClCCl
298.15 K, 101.33 kPa
Conditions | viscosity [mPa·s]
x1 = 0.0047 | 0.418
x1 = 0.012 | 0.433
x1 = 0.02 | 0.448
x1 = 0.0388 | 0.48
x1 = 0.0685 | 0.56
x1 = 0.1079 | 0.649
x1 = 0.1533 | 0.78
x1 = 0.1882 | 0.907
x1 = 0.2206 | 1.028
x1 = 0.2751 | 1.226
x1 = 0.3166 | 1.409
x1 = 0.3515 | 1.576
x1 = 0.397 | 1.807
x1 = 0.4383 | 2.028
x1 = 0.4759 | 2.224
x1 = 0.5118 | 2.425
x1 = 0.5496 | 2.627
x1 = 0.6026 | 2.965
x1 = 0.6535 | 3.267
x1 = 0.7124 | 3.628
x1 = 0.7606 | 3.893
x1 = 0.8051 | 4.163
x1 = 0.854 | 4.458
x1 = 0.9019 | 4.724
x1 = 0.9342 | 4.893
x1 = 0.9731 | 5.104

CCCCOCCOCCO + O=C1CCCN1
298.15 K, 101 kPa
Conditions | viscosity [mPa·s]
x1 = 0.0024 | 14.13
x1 = 0.0056 | 14.02
x1 = 0.0086 | 13.96
x1 = 0.012 | 13.86
x1 = 0.0205 | 13.67
x1 = 0.0421 | 13.08
x1 = 0.0638 | 12.61
x1 = 0.0865 | 12.19
x1 = 0.1132 | 11.69
x1 = 0.1508 | 11.11
x1 = 0.1869 | 10.55
x1 = 0.2192 | 10.19
x1 = 0.2979 | 9.265
x1 = 0.3786 | 8.558
x1 = 0.3996 | 8.385
x1 = 0.4122 | 8.298
x1 = 0.4764 | 7.823
x1 = 0.5469 | 7.347
x1 = 0.6024 | 7.035
x1 = 0.6618 | 6.715
x1 = 0.7147 | 6.434
x1 = 0.7823 | 6.121
x1 = 0.8345 | 5.879
x1 = 0.8792 | 5.707
x1 = 0.9066 | 5.597
x1 = 0.9407 | 5.469
x1 = 0.9748 | 5.264
x2 = 0.0063 | 5.156

O=S1(=O)CCCC1 + CC(C)(C)O
viscosity [mPa·s], 101 kPa
Conditions | x1 = 0.1916 | x1 = 0.2786 | x1 = 0.3584 | x1 = 0.4717 | x1 = 0.5569 | x1 = 0.6312 | x1 = 0.732 | x1 = 0.8339 | x1 = 0.9188
303.15 K | 2.995 | 3.12 | 3.325 | 3.712 | 4.135 | 4.595 | 5.495 | 6.747 | 8.277
308.15 K | 2.513 | 2.644 | 2.844 | 3.213 | 3.602 | 4.022 | 4.832 | 5.938 | 7.276
313.15 K | 2.121 | 2.266 | 2.467 | 2.806 | 3.169 | 3.553 | 4.285 | 5.264 | 6.424

CCCCOCCOCCO + ClC(Cl)=C(Cl)Cl
298.15 K, 101.33 kPa
Conditions | viscosity [mPa·s]
x1 = 0.0092 | 0.859
x1 = 0.0253 | 0.883
x1 = 0.0385 | 0.91
x1 = 0.0481 | 0.929
x1 = 0.0583 | 0.95
x1 = 0.0816 | 1.001
x1 = 0.0932 | 1.03
x1 = 0.1188 | 1.09
x1 = 0.1559 | 1.186
x1 = 0.1903 | 1.289
x1 = 0.2322 | 1.413
x1 = 0.2748 | 1.557
x1 = 0.3127 | 1.691
x1 = 0.3556 | 1.851
x1 = 0.3911 | 2
x1 = 0.4295 | 2.16
x1 = 0.4585 | 2.288
x1 = 0.4917 | 2.445
x1 = 0.531 | 2.635
x1 = 0.575 | 2.845
x1 = 0.6181 | 3.066
x1 = 0.666 | 3.31
x1 = 0.7112 | 3.548
x1 = 0.7734 | 3.894
x1 = 0.8415 | 4.283
x1 = 0.8983 | 4.615
x1 = 0.929 | 4.805
x1 = 0.9482 | 4.918
x1 = 0.9696 | 5.061
x2 = 0.0169 | 5.131

CCC(C)O (stereo not drawn) + CCCCO
Conditions | viscosity [mPa·s]
303.15 K, 101 kPa, x2 = 0.8988 | 2.875

Cc1cccc(C)c1 + O=C1CCCO1
viscosity [mPa·s], 101.33 kPa
Conditions | x2 = 0.1012 | x2 = 0.214 | x2 = 0.3091 | x2 = 0.4022 | x2 = 0.5343 | x2 = 0.5955 | x2 = 0.7101 | x2 = 0.8371 | x2 = 0.9027
293.15 K | 0.69 | 0.777 | 0.859 | 0.948 | 1.093 | 1.169 | 1.332 | 1.544 | 1.671
298.15 K | 0.648 | 0.725 | 0.798 | 0.88 | 1.016 | 1.088 | 1.235 | 1.437 | 1.552
303.15 K | 0.61 | 0.679 | 0.752 | 0.829 | 0.951 | 1.013 | 1.147 | 1.325 | 1.431
308.15 K | 0.573 | 0.636 | 0.692 | 0.761 | 0.875 | 0.936 | 1.06 | 1.226 | 1.323

CCCCCCCCCCCCCCCCCC(=O)O + CN1CCC[C@H]1c1cccnc1
viscosity [mPa·s], 101 kPa
Conditions | x2 = 0.3991 | x2 = 0.4952 | x2 = 0.6034 | x2 = 0.6986 | x2 = 0.7961 | x2 = 0.8973
298.15 K | – | – | – | 21.18 | 14.22 | 7.79
323.15 K | 26.04 | 18.6 | 12.3 | 8.571 | 6.045 | 4.003

OC1COCOC1 + OCCO
viscosity [mPa·s], 101 kPa
Conditions | x1 = 0.1002 | x1 = 0.2002 | x1 = 0.3 | x1 = 0.4 | x1 = 0.5004 | x1 = 0.5997 | x1 = 0.7 | x1 = 0.8001 | x1 = 0.8999
298.15 K | 16.97 | 16.11 | 14.94 | 13.85 | 12.88 | 12.74 | 12.81 | 12.79 | 12.89
308.15 K | 11.6 | 10.98 | 10.23 | 9.473 | 8.583 | 8.457 | 8.572 | 8.812 | 8.878
318.15 K | 8.193 | 7.647 | 7.214 | 6.665 | 6.111 | 5.995 | 5.915 | 6.167 | 6.474

Cc1cccc(C)c1 + CC(C)(C)O
308.15 K, 101 kPa
Conditions | viscosity [mPa·s]
x2 = 0.0642 | 0.542
x2 = 0.1265 | 0.59
x2 = 0.2068 | 0.633
x2 = 0.3029 | 0.667
x2 = 0.3766 | 0.72
x2 = 0.4301 | 0.756
x2 = 0.4992 | 0.793
x2 = 0.5983 | 0.909
x2 = 0.6924 | 1.013
x2 = 0.7966 | 1.296
x2 = 0.908 | 1.731
